Converted amounts (≈) assume the structure as drawn. “And” between values parts separate entries of the source, which are not always exact repeats. Identical values can stand only once. “Also recorded” adds a separate entry of the source.
Key:
Caco-2 cells = test: Caco-2 cell toxicity, MTT assay; format: cell-based, human; details: overnight
Protocol: (§1) Caco-2 cells were seeded onto microtiter 96-well plates at a density of 70,000 cells/mL in 50 µL of minimal essential medium (Sigma) supplemented with 10% fetal bovine serum (Sigma), 1% L-glutamine (Gibco), and 1% non-essential amino acids (Sigma). Cells were incubated for two days at 37 °C in a humidified atmosphere containing 5% CO2. Then the cells were treated with the selected compounds at different concentrations: 6G7 and 6C3 were added at concentrations of 0.0625, 0.125, 0.25, 0.5, 1, and 2 mM, and 7C8 at concentrations of 3.125, 6.25, 12.5, 25, 50, and 100 μM. The final DMSO concentration in the medium was adjusted as indicated by the solubility of individual compounds and was reduced proportionally with serial dilutions. The highest DMSO concentration in assays was 5%. After overnight incubation, the cell viability was assessed by the MTT assay. Briefly, 3-(4,5-dimethylthiazol-2-yl)-2,5-diphenyltetrazolium bromide (MTT) reagent was added to each well at a final concentration of 1 mg/mL and incubated for 3 h. The medium was then removed, and the formazan product of living cells was dissolved in DMSO. The absorbance was measured at 570 nm with a Fluostar Galaxy microplate reader. Three independent experiments with the compounds 6C3 and 7C8 and four independent experiments with the compound 6G7 were performed.

NLPPya [1] = biological target: T1, NLPPya (Pythium aphanidermatum, UniProt Q9SPD4); test: Ion leakage from tobacco leaf disks induced by NLPPya; format: in vivo; details: 100 nM NLPPya, conductivity after 2 h
T1 sequence (Q9SPD4 18-234 limits assumed): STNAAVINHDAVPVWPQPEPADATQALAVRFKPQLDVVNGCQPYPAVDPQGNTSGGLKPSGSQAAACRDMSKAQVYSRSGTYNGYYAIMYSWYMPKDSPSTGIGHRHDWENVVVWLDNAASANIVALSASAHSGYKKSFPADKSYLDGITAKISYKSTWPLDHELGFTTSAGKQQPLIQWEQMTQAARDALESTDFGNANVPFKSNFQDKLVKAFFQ
Protocol: Tobacco leaves were infiltrated with 100 nM NLPPya in 20 mM MES, 150 mM NaCl pH 5.8, preincubated for 10 min with 500 μM or 1 mM 6G7. Final concentration of DMSO in solution was 10%. After 10 min incubation, 2 leaf disks were punched out (Ø 6 mm) and transferred to 2 mL of deionized distilled water. After 30 min of shaking at 430 rpm, leaf disks were transferred to 1 mL of fresh deionized distilled water. Conductivity was measured after 2 h using SevenCompact Cond meter (Mettler Toledo). Mock treated samples were discs from leaves infiltrated with buffer containing 10% DMSO or 6G7. Each value represents the average of 12–18 independent experiments.

NLPPya [2] = biological target: T1, NLPPya; test: STD-NMR binding to NLPPya; details: 25°C
Protocol: STD-NMR experiments were performed with 8 μM NLPPya. A pseudo-2D version of a STD-NMR pulse sequence with DPFGSE water suppression for the interleave acquisition of on- (δ 0.2 ppm) and off-resonance (δ 40 ppm) spectra was used at 25°C with 512 scans. A 30 ms spin-lock filter was used for protein signal suppression. The STD spectra were obtained by subtracting the saturated spectra from the reference spectra. The STD effect was calculated by (I0-Isat)/I0, where I0 is the signal intensity in the off-resonance spectrum, Isat is the signal intensity in the on-resonance spectrum, and I0-Isat is the intensity of the STD-NMR spectrum. Appropriate control experiments in the absence of protein were performed to assure the absence of direct irradiation of the ligand. In the titration study, five STD experiments were performed with varying ligand concentrations (40, 80, 240, 400, and 560 μM).
The STD amplification factor (STD-AF) was determined according to Eq 1, where [L] is the ligand concentration, and [P] is the NLPPya concentration.
The hyperbolic behavior of the curves obtained from plotting STD-AF as a function of ligand concentration is appropriately described by Eq 2, where STD-AF is the STD amplification factor, αSTD is the maximum amplification factor, [L] is the ligand concentration, and KD is the dissociation constant. […]

tobacco leaves = test: Tobacco leaf infiltration assay, compounds alone; format: in vivo, Nicotiana tabacum; details: 1 mM compound in 5% DMSO, 24 h
Protocol: (§2) Tobacco plants (Nicotiana tabacum ‘White Burley’) were grown in a controlled growth chamber with supplementary light (70−90 μMm^-2s^-1) and a 16 h photoperiod with 22°C day and 20°C night temperatures at 75±2% humidity. Using blunt-ended syringe pressure infiltration, 100 μL of solution (either 400 nM NLPPp or 250 nM NLPPya in ultrapure water in the absence or presence of the compounds) was infiltrated abaxially into the leaves of 5−7-week-old tobacco plants (Nicotiana tabacum ‘White Burley’). 5% DMSO, NLP solutions, and appropriate compound dilutions were used as controls. The area on the upper side of the leaf, which was infiltrated with solutions, was labeled and checked for the presence of necrosis after 24 h. To thoroughly assess the effect of compound 6G7 on the level of leaf necrosis/chlorosis, 50 μL of 100 nM NLPPya solution without/with 500 μM or 1 mM 6G7 in 20 mM MES, 150 mM NaCl, pH 5.8, containing 10% DMSO was infiltrated. The level of leaf chlorosis was estimated using ImageJ software by calculating the ratio of the chlorotic area to the whole infiltrated area, both measured in squared pixels. Each value represents the average of sixteen infiltrations.

NLPPya [3] = biological target: T1, NLPPya; test: Tobacco leaf infiltration assay, NLPPya-induced necrosis/chlorosis; format: in vivo; details: 24 h; for effect on NLPPya-induced necrosis: 200 nM NLPPya, tobacco leaves
Protocol: as §2, with “([…]” for “(either 400 nM NLPPp or 250 nM NLPPya in ultrapure water in the absence or presence”, “To thoroughly assess the effect of compound 6G7 on the level of leaf necrosis/chlorosis, 50 μL of 100 nM NLPPya solution without/with 500 μM or 1 mM 6G7 in 20 mM MES, 150 mM NaCl, pH 5.8, containing 10% DMSO was infiltrated.” left out

Phytophthora infestans = format: in vivo; details: for P. infestans infection spots on potato leaves (size and coloring): 1 mM compound applied with zoospores, 4 days; for P. infestans growth on potato leaves by real-time PCR: 1 mM compound, 4 days after infection, vs control compound 6E11
NLPPya [4] = biological target: T1, NLPPya; test: Surface plasmon resonance binding to immobilized NLPPya; details: for Kd: SPR, steady-state affinity model, 50 mM MES, 150 mM NaCl, 5% DMSO, pH 5.8; for SPR binding to NLPPya (in words): sensor-chip-immobilized NLPPya
Protocol: Biacore T100 equipped with the Series S Sensor chip CM5 (GE Healthcare) was used to assess the binding of compounds to NLPPya and NLPPp. The proteins were covalently immobilized to the chip using amine coupling. The surface was activated with a 10 min injection of a mixture of 1-ethyl-3-(3-dimethylaminopropyl) carbodiimide hydrochloride / N-hydroxysuccinimide (1:1). NLPs were immobilized on the second flow cell. The first flow cell was left empty to control any nonspecific compound binding to the dextran matrix. […] In total, 587 in-house compounds (Faculty of Pharmacy, University of Ljubljana) were dissolved in DMSO as stock solutions at a concentration of 10 mM and diluted in 50 mM 2-(N-morpholino)ethanesulfonic acid (MES) and 150 mM NaCl to a final concentration of 5% DMSO (pH 5.8) prior to SPR experiments. After washing the sensor surface with running buffer (50 mM MES, 150 mM NaCl, 5% DMSO, pH 5.8), the compounds were tested at two different concentrations: 20 and 200 μM. Certain compounds were tested at lower concentrations owing to their lower solubility in the running buffer. Each compound was injected for 1 min at a flow rate of 30 μL/min, and dissociation was monitored for another minute. […] In the next set of experiments, 67 selected compounds were titrated. The samples were injected for 1 min at a flow rate of 30 μL/min, and dissociation was monitored for another minute. The samples were typically injected at the following concentrations: 0, 12.5, 25, 50, 100, and 200 μM. At the end of each concentration series, 25 μM of compound was injected again to control the activity of the surface. Regeneration between individual injections was not needed for molecules that completely dissociated from the protein. When complete dissociation was not achieved, short pulses of 0.1% SDS were included. The obtained sensorgrams were analyzed using the Biacore T100 Evaluation software, and the steady-state affinity binding model was used to calculate affinity constants.

[5] = Solubility in SPR running buffer; format: physicochemical; details: SPR running buffer containing 5% DMSO
[6] = Caco-2 cell toxicity, MTT assay; format: cell-based, human; details: human, Caco-2, 12.5 μM, overnight, read-out: Caco-2 cell viability, of the untreated control
Protocol: as §1

Row | Compound | effect on Caco-2 cell viability (Caco-2 cells; up to concentrations approximately 10 times higher than its KD for NLPs) | ion leakage induced by NLPPya from tobacco cells (NLPPya [1]; 500 μM compound) | ion leakage induced by NLPPya from tobacco cells (NLPPya [1]; 1 mM compound) | STD signals in the presence of NLPPya (NLPPya [2]; 400 μM ligand, 1:50 receptor-to-ligand ratio) | Kd (NLPPya [2]; STD-NMR titration, 8 μM NLPPya) [µM] | toxic effects of compound alone on leaf tissue (tobacco leaves) | NLPPya-induced leaf chlorosis (NLPPya [3]; 100 nM NLPPya, 1 mM compound, buffer with 10% DMSO) | effect on NLPPya-induced necrosis (NLPPya [3]; 1 mM compound) | P. infestans infection spots on potato leaves (size and coloring) (Phytophthora infestans) | P. infestans growth on potato leaves by real-time PCR (Phytophthora infestans) | Kd (NLPPya [4]) | reduction of Caco-2 cell viability (Caco-2 cells; 1 mM) [%] | reduction of Caco-2 cell viability (Caco-2 cells; 2 mM) [%] | effect on Caco-2 cell viability (Caco-2 cells; concentrations below 500 μM) | SPR binding to NLPPya (in words) (NLPPya [4]) | solubility limit [5] | solubility ([5]; pH 5.8, aqueous with cosolvent or surfactant or cyclodextrin, kinetic from dmso stock, read-out: solubility limit) [µM] | reduction of Caco-2 cell viability (Caco-2 cells; 3.125 μM) [%] | viability at 12.5 µM [6] [%] | effect on NLPPya-induced necrosis (NLPPya [3]; 200 μM compound)
1 | COc1ccc(Nc2ccccc2C(=O)O)cc1 [6G7, 2-((4-methoxyphenyl)amino)benzoic acid] | did not affect cell viability; also recorded: non-toxic | efficiently inhibit | efficiently inhibit | clear STD signals | 150 ± 7 | did not affect the plant tissue | efficiently reduced | inhibited | largely reduced or disappeared | significantly reduced; also recorded: significantly inhibited | 131 ± 36.4 µM |  |  |  |  |  |  |  |  | 
2 | Cc1ccc2occ(C3N[C@H](C(=O)O)CS3)c(=O)c2c1 (stereo partly drawn) [6C3, (4R)-2-(6-methyl-4-oxo-4H-chromen-3-yl)thiazolidine-4-carboxylic acid] |  |  |  |  |  | did not affect the plant tissue |  | inhibited | largely reduced or disappeared | significantly reduced |  | 8 | 15 | did not affect cell viability | stable binding |  |  |  |  | 
3 | Cc1oc([C@@H](O)[C@H](O)[C@H](O)CO)cc1C(=O)O [6E11, 2-methyl-5-((1S,2R,3R)-1,2,3,4-tetrahydroxybutyl)furan-3-carboxylic acid, reference compound] |  |  |  |  |  | did not affect the plant tissue |  |  |  |  |  |  |  |  | did not bind |  |  |  |  | 
4 | O=C(Cc1c[nH]c2ccccc12)Nc1ccccc1CCOC(=O)Cc1c[nH]c2ccccc12 [7C8, 2-(2-(1H-indol-3-yl)acetamido)phenethyl 2-(1H-indol-3-yl)acetate] |  |  |  |  |  | did not affect the plant tissue |  |  | largely reduced or disappeared | significantly reduced | 52.8 µM and ~50 µM |  |  |  |  | poorly soluble at concentrations of >180 | ~180 (≈ 81.3 µg/mL) | 35 | 20 | inhibited
